Experimental data reported in BindingDB's records for doi:10.1002/cbic.200300842 (University of Georgia, 2004).
“And” between values parts separate entries of the source, which are not always exact repeats. Equal entries are not always repeated.

biological target: T1, Alpha-mannosidase 2 (Homo sapiens, UniProt Q16706); details: pH 5.6; 37 °C
T1 sequence (Q16706 whole entry): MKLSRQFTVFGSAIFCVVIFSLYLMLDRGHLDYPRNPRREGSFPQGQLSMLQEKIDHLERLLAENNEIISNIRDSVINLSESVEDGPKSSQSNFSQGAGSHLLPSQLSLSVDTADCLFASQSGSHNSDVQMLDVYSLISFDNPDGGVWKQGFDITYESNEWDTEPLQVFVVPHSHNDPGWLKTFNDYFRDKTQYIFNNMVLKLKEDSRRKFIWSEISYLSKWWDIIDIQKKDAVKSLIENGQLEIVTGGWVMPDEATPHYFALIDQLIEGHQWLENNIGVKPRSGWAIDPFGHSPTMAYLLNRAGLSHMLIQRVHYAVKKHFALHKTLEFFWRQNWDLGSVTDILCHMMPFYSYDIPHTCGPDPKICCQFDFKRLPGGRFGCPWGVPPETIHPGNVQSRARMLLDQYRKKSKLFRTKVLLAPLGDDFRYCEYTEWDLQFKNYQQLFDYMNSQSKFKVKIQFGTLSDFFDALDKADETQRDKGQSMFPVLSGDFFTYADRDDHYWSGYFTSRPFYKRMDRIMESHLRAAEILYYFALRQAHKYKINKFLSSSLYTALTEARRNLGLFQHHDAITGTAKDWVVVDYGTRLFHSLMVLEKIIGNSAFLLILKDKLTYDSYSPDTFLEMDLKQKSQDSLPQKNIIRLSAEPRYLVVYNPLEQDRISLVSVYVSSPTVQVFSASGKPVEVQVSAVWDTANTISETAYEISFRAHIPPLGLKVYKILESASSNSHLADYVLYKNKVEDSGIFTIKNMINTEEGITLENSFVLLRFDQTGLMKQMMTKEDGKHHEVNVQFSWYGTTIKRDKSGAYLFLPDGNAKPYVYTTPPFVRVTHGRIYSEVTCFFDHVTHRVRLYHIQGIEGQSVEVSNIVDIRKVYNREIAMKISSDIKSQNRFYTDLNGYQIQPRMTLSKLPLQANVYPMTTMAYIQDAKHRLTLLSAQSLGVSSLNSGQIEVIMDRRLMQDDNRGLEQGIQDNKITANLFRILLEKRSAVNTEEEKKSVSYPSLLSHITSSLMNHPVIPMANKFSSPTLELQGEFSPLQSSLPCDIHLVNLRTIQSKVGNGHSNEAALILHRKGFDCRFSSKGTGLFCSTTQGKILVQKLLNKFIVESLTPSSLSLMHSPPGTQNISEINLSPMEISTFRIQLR

Row | Ki | Compound
1 | 50000 nM and 6600 nM | N[C@H]1[C@@H](O)[C@@H](O)[C@@H](O)[C@H]1O [Mannostatin analogue, 4b]
2 | 530 nM and 170 nM | CS[C@H]1[C@H](O)[C@H](O)[C@H](O)[C@@H]1NCc1ccc(F)cc1 [Benzylation of mannostatin A, 1c]
3 | 520 nM and 100 nM | COc1ccc(CN[C@H]2[C@@H](O)[C@@H](O)[C@@H](O)[C@@H]2SC)cc1 [Benzylation of mannostatin A, 1f]
4 | 210 nM and 90 nM | CS[C@@H]1[C@@H](N)[C@@H](O)[C@@H](O)[C@H]1O [Mannostatin A, 1]
5 | 910 nM and 100 nM | CS[C@H]1[C@H](O)[C@H](O)[C@H](O)[C@@H]1NCc1ccc(Cl)cc1 [Benzylation of mannostatin A, 1d]
